Some targets named below: PTGER2 (EP2) (Homo sapiens, UniProt P43116); PTRGER4 (EP4) (Homo sapiens, UniProt P35408); EP2 (Homo sapiens, UniProt P43116); EP4 (Homo sapiens, UniProt P35408).
Assay in all cases: cell-based

PTGER2 (EP2), sequence (P43116 whole entry): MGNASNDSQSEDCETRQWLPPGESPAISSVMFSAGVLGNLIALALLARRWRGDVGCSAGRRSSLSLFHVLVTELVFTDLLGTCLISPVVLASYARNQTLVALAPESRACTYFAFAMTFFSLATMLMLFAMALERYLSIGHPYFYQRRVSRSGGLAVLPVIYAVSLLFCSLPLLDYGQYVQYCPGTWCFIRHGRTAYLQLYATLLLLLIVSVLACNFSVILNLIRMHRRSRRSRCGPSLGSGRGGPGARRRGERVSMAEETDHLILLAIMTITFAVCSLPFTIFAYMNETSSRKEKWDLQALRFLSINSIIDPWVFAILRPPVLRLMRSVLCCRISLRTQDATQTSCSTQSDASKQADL
EP2, sequence (P43116 whole entry): as above
PTRGER4 (EP4), sequence (P35408 whole entry): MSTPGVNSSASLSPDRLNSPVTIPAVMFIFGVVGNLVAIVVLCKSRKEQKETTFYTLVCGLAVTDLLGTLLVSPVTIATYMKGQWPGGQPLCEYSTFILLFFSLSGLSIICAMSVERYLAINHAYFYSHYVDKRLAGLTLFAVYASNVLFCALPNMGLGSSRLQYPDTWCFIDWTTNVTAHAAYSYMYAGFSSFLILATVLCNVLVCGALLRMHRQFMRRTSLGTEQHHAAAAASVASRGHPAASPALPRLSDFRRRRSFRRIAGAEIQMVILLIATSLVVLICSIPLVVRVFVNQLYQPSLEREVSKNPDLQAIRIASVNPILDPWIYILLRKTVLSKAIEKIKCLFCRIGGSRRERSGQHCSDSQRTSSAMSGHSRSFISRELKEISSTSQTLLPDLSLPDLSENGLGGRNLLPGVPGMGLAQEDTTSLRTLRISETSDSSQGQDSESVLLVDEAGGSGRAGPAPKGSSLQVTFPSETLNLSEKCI
EP4, sequence (P35408 whole entry): as above

For `CCOc1cc(-c2cc(NCCc3ccc(Br)c(Cl)c3)ncn2)sc1-c1noc(=O)[nH]1` [Example 106, 3-(5-{6-[2-(4-Bromo-3-chloro-phenyl)-ethylamino]-pyrimidin-4-yl}-3-ethoxy-thiophen-2-yl)-[1,2,4]oxadiazol-5(4H)-one], the IC50 on PTGER2 (EP2) was 35 nM; on PTRGER4 (EP4) it was 1 nM; against EP2, 49 nM; against EP4, 10 nM.
Taken in the same sequence, the figures for `CCOc1cc(-c2cc(NCCc3ccc(Cl)c(Cl)c3C)ncn2)sc1C(=O)O` [Example 181, 5-{6-[2-(3,4-Dichloro-2-methyl-phenyl)-ethylamino]-pyrimidin-4-yl}-3-ethoxy-thiophene-2-carboxylic acid] were 165 nM, 96 nM, 92 nM and 34 nM.
As for `CCOc1cc(Br)ccc1CCNc1cc(-c2cc(OCC)c(-c3noc(=O)[nH]3)s2)ncn1` [Example 85, 3-(5-{6-[2-(4-Bromo-2-ethoxy-phenyl)-ethylamino]-pyrimidin-4-yl}-3-ethoxy-thiophen-2-yl)-[1,2,4]oxadiazol-5(4H)-one], the IC50 came to 8 nM at PTGER2 (EP2), 6 nM at PTRGER4 (EP4), 7 nM against EP2 and 12 nM against EP4.
Taken in the same sequence, the figures for `CCOc1cc(-c2cc(NCCc3c(F)cc(Br)cc3F)nc(C)n2)sc1-c1noc(=O)[nH]1` [Example 156, 3-(5-{6-[2-(4-Bromo-2,6-difluoro-phenyl)-ethylamino]-2-methyl-pyrimidin-4-yl}-3-ethoxy-thiophen-2-yl)-[1,2,4]oxadiazol-5(4H)-one] were 9 nM, 31 nM, 28 nM and 16 nM.
For `COc1cc(C(F)F)c(F)cc1CCNc1cc(-c2ccc(C(=O)O)c(OC3CCC3)c2)ncn1` [Example 184, 2-Cyclobutoxy-4-{6-[2-(4-difluoromethyl-5-fluoro-2-methoxy-phenyl)-ethylamino]pyrimidin-4-yl}-benzoic acid], in that order: 127 nM, 140 nM, 630 nM and 250 nM.
Regarding `CCOc1cc(-c2cc(NCCc3cccc(OC)c3)ncn2)sc1C(=O)O` [Example 59, 3-Ethoxy-5-{6-[2-(3-methoxy-phenyl)-ethylamino]-pyrimidin-4-yl}-thiophene-2-carboxylic acid], the IC50 on PTGER2 (EP2) was found to be 359 nM; against PTRGER4 (EP4), 169 nM; against EP2, 131 nM; on EP4, 51 nM.
Taken in the same sequence, the figures for `CCOc1cc(-c2cc(NCCc3ccc(Cl)c(Cl)c3)ncn2)sc1-c1noc(=O)[nH]1` [Example 121, 3-(5-{6-[2-(3,4-Dichloro-phenyl)-ethylamino]-pyrimidin-4-yl}-3-ethoxy-thiophen-2-yl)-[1,2,4]oxadiazol-5(4H)-one] were 66 nM, 9 nM, 60 nM and 42 nM.
Taken in the same sequence, the figures for `CCNc1cc(-c2cc(NCCc3c(F)cc(Br)cc3F)ncn2)ccc1C(N)=O` [Example 217, 4-{6-[2-(4-Bromo-2,6-difluoro-phenyl)-ethylamino]-pyrimidin-4-yl}-2-ethylamino-benzamide] were 20 nM, 29 nM, 134 nM and 79 nM.
For `CCOc1cc(-c2cc(NCCc3c(F)cc(Br)cc3F)ncn2)sc1-c1noc(=S)[nH]1` [Example 295, 3-(5-{6-[2-(4-Bromo-2,6-difluoro-phenyl)-ethylamino]-pyrimidin-4-yl}-3-ethoxy-thiophen-2-yl)-[1,2,4]oxadiazole-5(4H)-thione], in that order: 12 nM, 2 nM, 84 nM and 2 nM.

(Values after patent publication US11712438B2, “Phenyl derivatives as PGE2 receptor modulators” (IDORSIA PHARMACEUTICALS LTD, priority 2017, dated 2023).)
